B1: DSV36S: anti-G-alphai antibody of Cisbio Bioassays, VH SEQ ID NO: 15 and VL SEQ ID NO: 16; used labeled with d2 or Lumi4Tb (antibody, V domains shown)
VH: EVQLQQSGAELVRPGALVKLSCKASGFNIKDYYMHWVKQRPEQGLEWIGWIDPENGNTIYDPKFQGKASITADTSSNTAYLQLSSLTSEDTAVYYCTRGGGYYSDWYFDVWGAGTTVTVSS
VL: QIVLTQSPAIMSASPGEKVTMTCSASSSVSYMHWYQQKSGTSPKRWIYDTSKLASGVPARFSGSGSGTSYSLTISSMEAEDAATYYCQQWSSNPPITFGAGTKLELK
modifications: d2 or Lumi4Tb label; Heavy chain variable domain (VH); Light chain variable domain (VL)

Assays:
[1] = target: T1, Delta Opioid GPCR (Homo sapiens, UniProt P41143); test: Activation test according to format 2A on Delta Opioid GPCR (antagonist mode); format: biochemical; conditions: Example 15; SNC162 200 nM fixed; increasing antagonist concentration; GTPgN-octyl-C2 6 nM + DSV36S-d2 10 nM; CHO-DOR membranes; NaCl 300 mM; GDP 0.5 μM
T1 construct: purchased Perkin Elmer or Euroscreen
Protocol: All the reagents were diluted in TrisHCl buffer 50 mM pH 7.4, MgCl2 10 mM, BSA 0.1%, NaCl 10 mM or 100 mM or 300 mM or 500 mM (concentration specified in the legend of each figure), 0 or 0.5 or 1 μM GDP (concentration specified in the legend of each figure). The membranes were prepared 4× for distributing 1 or 10 μg/well (amount specified in the legend of each figure). The nucleotide GTPgS (nonspecific signal condition) was prepared 6.67× to obtain a final concentration in the wells of 100 μM. The test compounds (agonists or antagonists) were prepared 10× to obtain the final concentrations in the wells mentioned in the diagrams. […]
• Membranes expressing the GPCR and the G protein: 5 μL • Buffer or GTPgS nucleotide (for the nonspecific signal condition): 3 μL • Nonhydrolyzable/slowly hydrolyzable GTP analogue—donor or acceptor: 5 μL • anti G-alphai-donor or acceptor ligand: 5 μL • Buffer or test compounds (agonists and/or antagonists): 2 μL. The nonspecific signal (fluorescence background noise) was measured with wells containing an excess of GTPgS (100 μM). Reading the HTRF Signal […]
From the raw signals at 665 nm (for red acceptor—Cy5) or 520 nm (for green acceptors—AF488 or Fluorescein) and 620 nm, the HTRF Ratio was calculated from the following formula: HTRF Ratio=Signal at 665 nm or Signal at 520 nm/Signal at 620 nm*10.000. […]

[2] = target: switch II domain of the alphai G-protein (Homo sapiens, UniProt P63096); test: Binding site of the anti-G-alphai antibodies
Sequence of switch II domain of the alphai G-protein (P63096 whole entry, the tested form may be a part): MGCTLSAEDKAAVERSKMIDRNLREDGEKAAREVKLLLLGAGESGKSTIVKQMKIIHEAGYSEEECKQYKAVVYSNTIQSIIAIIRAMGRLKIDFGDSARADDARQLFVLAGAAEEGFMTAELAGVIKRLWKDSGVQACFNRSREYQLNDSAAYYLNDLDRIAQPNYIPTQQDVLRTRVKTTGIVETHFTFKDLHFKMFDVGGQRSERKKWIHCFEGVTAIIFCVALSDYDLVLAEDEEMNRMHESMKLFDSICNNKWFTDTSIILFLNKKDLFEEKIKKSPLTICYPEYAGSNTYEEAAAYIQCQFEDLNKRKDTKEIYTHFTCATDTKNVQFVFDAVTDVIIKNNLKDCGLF

T1 sequence (P41143 whole entry): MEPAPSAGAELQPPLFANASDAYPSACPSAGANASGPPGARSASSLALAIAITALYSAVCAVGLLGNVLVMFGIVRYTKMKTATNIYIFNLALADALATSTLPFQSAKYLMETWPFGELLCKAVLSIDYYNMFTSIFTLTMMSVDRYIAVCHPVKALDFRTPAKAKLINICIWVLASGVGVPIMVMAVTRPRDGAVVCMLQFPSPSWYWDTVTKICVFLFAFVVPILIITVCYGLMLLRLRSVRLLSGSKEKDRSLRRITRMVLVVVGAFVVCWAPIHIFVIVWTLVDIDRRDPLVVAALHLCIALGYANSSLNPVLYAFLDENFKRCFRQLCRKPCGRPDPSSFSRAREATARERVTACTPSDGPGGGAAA

Molecule | inhibition of activation by agonist SNC162 (decrease in the TR-FRET signal, HTRF Ratio) [1] | binding site on the alphai G-protein [2]
Oc1ccc2c3c1O[C@H]1c4[nH]c5ccccc5c4C[C@@]4(O)[C@@H](C2)N(CC2CC2)CC[C@]314 [Naltrindole] | inhibited | 
B1 |  | bind at the level of the switch II domain of the alphai G-protein

— US12584916B2, “Method for measuring the modulation of the activation of a G protein-coupled receptor with GTP analogues” (CISBIO BIOASSAYS, priority 2019, dated 2026)
